# In patent publication US20210212934A1, “METHODS FOR PROVIDING LONG-LASTING ANESTHETIC EFFECT USING MICROPARTICLES” (priority 2007, published 2021):
# Test: In vitro lidocaine release from microparticles (dialysis tube, water, 37° C., UV 214 nm)
# Format: physicochemical
# Protocol: Microparticle batches in an amount of 100 mg were placed in a dialysis tube (high retention seamless cellulose tubing; 23 mm×15 mm. MW cut-off 05173; Sigma Aldrich). The tube was then placed in a 30 ml glass vial containing 10 ml of deionized ultra-filtered water (Fisher Scientific). Vials were placed in a reciprocating shaking bath (Reciprocating Shaking Bath Model 50; Precision Scientific) with the temperature adjusted to 37° C., and shaking speed of 100 rpm. […] The entire 10 ml of dissolution medium was replaced with fresh medium at each sampling time interval. Dilution of 0.1 ml of the withdrawn sample was diluted to 10 ml of water in clean culture tubes of borosilicate glass (Pyrex). […] Two samples per microparticle batch were measured for drug release and triplicate samples were prepared for each release interval for UV-absorbance.
compound,measurement,setting,value
"CCN(CC)CC(=O)Nc1c(C)cccc1C [lidocaine free base, lidocaine]",time of peak of release,"in vitro release profile, single peak",about one
same,time at which release falls below minimum required level (5.6%),"in vitro release, point 10",2.5 days
same,"time at which drug is ""exhausted""","in vitro release, time point 11",3 days
same,peak of lidocaine release,"in vitro, % released at peak at about one day",18%
